From patent publication US7737120B2 (Aicuris GmbH & Co. KG, priority 2004, dated 2010)
Entries after “also recorded” stand apart in the source; their conditions may differ.

Columns and labels:
thermolysin [1] = assay: thermolysin (1:50) in cleavage buffer (0.1 M ammonium hydrogencarbonate/0.5 M urea pH 8) with methanol; conditions: 37° C., up to 24 h
papain = papain (1:50) in cleavage buffer (0.1 M sodium phosphate/10 mM cysteine, 2 mM EDTA pH 6.5) with methanol; conditions: 37° C., up to 24 h
chymotrypsin [2] = assay: chymotrypsin (1:50) in cleavage buffer (0.1 M ammonium hydrogencarbonate/0.5 M urea pH 8) with methanol; conditions: 37° C., up to 24 h
bromelain = bromelain (1:50) in cleavage buffer (0.1 M sodium phosphate, 10 mM cysteine, 2 mM EDTA pH 6.5) with methanol; conditions: 37° C., up to 24 h
chymotrypsin [3] = assay: preparative cleavage, chymotrypsin (1:25) in cleavage buffer (0.1 M ammonium hydrogencarbonate/0.5 M urea pH 8) with methanol; conditions: 37° C., up to about 70 min
subtilisin = subtilisin (1:50) in cleavage buffer (0.1 M ammonium hydrogencarbonate/0.5 M urea pH 8) with methanol; conditions: 37° C., up to 24 h
proteinase K = proteinase K (1:50) in cleavage buffer (0.1 M sodium tetraborate pH 9) with methanol; conditions: 37° C., up to 24 h
thermolysin [4] = assay: thermolysin (1:50) in cleavage buffer (0.1 M tris(hydroxymethyl)aminomethane/5 mM calcium chloride pH 7.45) with methanol; conditions: 37° C., up to 24 h
pepsin = assay: pepsin; conditions: cited from earlier work
[5] = the buffer used (enzymatic digestion experiments)
[6] = tested on: pepsin, trypsin, chymotrypsin and mucosal peptidase; conditions: cited from earlier work
[7] = tested on: Gram-positive aerobic and anaerobic bacteria; conditions: statement in words, background section; cited from earlier work

| Substance | fragment found (thermolysin [1]) | fragment found (papain) | fragment found (chymotrypsin [2]) | fragment found (bromelain) | fragment found (chymotrypsin [3]) | fragment found (subtilisin) | fragment found (proteinase K) | fragment found (thermolysin [4]) | not cleaved (pepsin) | fragment found [5] | enzymatic digestion [6] | activity against Gram-positive aerobic and anaerobic bacteria [7] |
| --- | --- | --- | --- | --- | --- | --- | --- | --- | --- | --- | --- | --- |
| D-Leu-Leu-Ala(3-cyclohexyl)-Leu(OH)-Leu-D-Arg-Ile-allo-Thr-Gly-Asn(OH)-Ser | Peptide 1-2 (Leu-Leu) | Peptide 5-11 (Leu-Arg-Ile-(allo)Thr-Gly-Asn(OH)-Ser); also recorded: Peptide 5-9 (Leu-Arg-Ile-(allo)Thr-Gly); also recorded: Peptide 10-11 (Asn(OH)-Ser); also recorded: Peptide 1-4 (Leu-Leu-PTHAla(3-cyclohexyl)*-Leu(OH)) | Peptide 4-11 (Leu(OH)-Leu-Arg-Ile-(allo)Thr-Gly-Asn(OH)-Ser); also recorded: Peptide 1-3 (Leu-Leu-PTHAla(3-cyclohexyl)*); also recorded: deamidated form (1-11); also recorded: deamidated form (4-11) | Peptide 1-9 (Leu-Leu-PTHAla(3-cyclohexyl)*-Leu(OH)-Leu-Arg-Ile-(allo)Thr-Gly); also recorded: Peptide 10-11 (Asn(OH)-Ser) | fragment 1-3 (LL(3-cyclohexyl)A); also recorded: fragment 4-11 | Peptide 4-11 (Leu(OH)-Leu-Arg-Ile-(allo)Thr-Gly-Asn(OH)-Ser); also recorded: Peptide 1-3 (Leu-Leu-PTHAla(3-cyclohexyl)*) |  |  |  |  |  |  |
| D-Leu-Leu-Phe-Leu(OH)-Leu-D-Arg-Ile-allo-Thr-Gly-Asn(OH)-Ser |  | Peptide 5-11 (Leu-Arg-Ile-(allo)Thr-Gly-Asn(OH)-Ser); also recorded: Peptide 5-9 (Leu-Arg-Ile-(allo)Thr-Gly); also recorded: Peptide 10-11 (Asn(OH)-Ser); also recorded: Peptide 1-4 (Leu-Leu-Phe-Leu(OH)) | Peptide 4-11 (Leu(OH)-Leu-Arg-Ile-(allo)Thr-Gly-Asn(OH)-Ser); also recorded: Peptide 1-3 (Leu-Leu-Phe) | Peptide 1-9 (Leu-Leu-Phe-Leu(OH)-Leu-Arg-Ile-(allo)Thr-Gly); also recorded: Peptide 10-11 (Asn(OH)-Ser) | fragment 4-11; also recorded: fragment 1-3 (LLF) | Peptide 4-11 (Leu(OH)-Leu-Arg-Ile-(allo)Thr-Gly-Asn(OH)-Ser); also recorded: Peptide 1-3 (Leu-Leu-Phe) | Peptide 4-11 (Leu(OH)-Leu-Arg-Ile-(allo)Thr-Gly-Asn(OH)-Ser); also recorded: Peptide 5-11 (Leu-Arg-Ile-(allo)Thr-Gly-Asn(OH)-Ser) | Peptide 3-11 (Phe-Leu(OH)-Leu-Arg-Ile-(allo)Thr-Gly-Asn(OH)-Ser); also recorded: Peptide 1-2 (Leu-Leu) |  |  |  |  |
| D-Leucyl-L-leucyl-[(3R)-3-hydroxy-L-phenylalanyl)]-[(3R)-3-hydroxy-L-leucyl]-L-leucyl-D-arginyl-L-isoleucyl-L-allothreonyl-glycyl-[(3S)-3-hydroxy-L-asparaginyl]-L-serine-C1^0.11-O3^0.3-lactone bistrifluoroacetate |  |  |  |  |  |  |  |  | no enzymatic digestion (in the case of pepsin) | open-chain lysobactin; also recorded: β-hydroxyaspartate unit |  |  |
| D-Leucyl-N-1-{(3S,6S,12S,15S,18R,21S,24S,27S,28R)-6-[(1S)-2-amino-1-hydroxy-2-oxoethyl-]18-(3-{[amino(imino)methyl]amino}propyl)-12-[(1S)-1-hydroxyethyl]-3-(hydroxymethyl)-24-[(1R)-1-hydroxy-2-methylpropyl]-21-isobutyl-15-[(1S)-1-methylpropyl]-2,5,8,11,14,17,20,23,26-nonaoxo-28-phenyl-1-oxa-4,7,10,13,16,19,22,25-octaazacyclo-octacosan-27-yl}-L-leucinamide Bistrifluoroacetate [Lysobactin] |  |  |  |  |  |  |  |  |  |  | no (such as in the case of pepsin, for example) or only inadequate enzymatic digestion | strong activity |
